# Laboratory results from patent US10584119B2, “Pyrazole compounds and methods of use thereof” (TRANSLATIONAL DRUG DEVELOPMENT, LLC, priority 2013, dated 2020).
# Assays:
# [1] = tested on: AN3CA; experiment: CellTiter-Blue cell viability assay, AN3CA cell line; format: cell-based; conditions: Homo sapiens, AN3-CA, 72 hour treatment, concentration that inhibits cell growth by 50 percent of control
# Method: (§1) Cell viability in the presence of varying concentrations of the above listed compounds at different time points was used to assess cytotoxicity and the effect of the compounds on cell proliferation.
# (§2) Cell viability was measured by the CellTiter-Blue® cell viability assay Promega (Madison, Wis.). This procedure measures the conversion of the indicator dye (resazurin) to resorufin, an indicator of cell viability. Following treatment, growth media was removed and cells were incubated with 20 μl of CellTiter-Blue® Reagent and growth media for 1-4 hours at 37° C. Fluorescence values were measured at 535/590 nm using a Beckman-Coulter DTX-880 microplate reader.
# (§3) Cells were grown to 70% confluency, trypsinized, counted, and seeded in 96 well flat-bottom plates at a final concentration of 2.5×10^3-5×10^3 cells/well (Day 0). Cells were allowed to incubate in growth media for 24 hours to allow for maximum adhesion. Treatment with the test agents or standard agents began on Day 1 and continued for 72 hours. At the 72 hour timepoint, treatment containing media was removed. Viable cell numbers were quantified by the CellTiter-Blue® cell viability assay as described above. Experiments were repeated at least twice with the same concentrations to determine growth inhibitory activity. Results from these studies were used to calculate an IC50 value (concentration of drug that inhibits cell growth by 50 percent of control) for each compound.
# (§4) For single agent and combination studies, data from each experiment were collected and expressed as % Cell Growth using the following calculation: % Cell Growth=(ftest/fvehicle)×100 where ftest is the fluorescence of the tested sample, and fvehicle is the fluorescence of the vehicle in which the drug is dissolved. Dose response graphs and IC50 values were generated using Prism 4 software (GraphPad) using the following equation: Y=(Top−Bottom)/(1+10^((log IC50−X)[…])) where X is the logarithm of concentration and Y is the response. Y starts at the Bottom and goes to Top with a sigmoid shape.
# [2] = tested on: A498; experiment: CellTiter-Blue cell viability assay, A498 cell line; format: cell-based; conditions: Homo sapiens, 72 hour treatment, concentration that inhibits cell growth by 50 percent of control
# Method: as §1, §2, §3, §4
Structure (SMILES),IC50 [1] [µM],IC50 [2] [µM]
Cc1ccc(C(C)C)cc1-c1cc(C(F)(F)F)nn1-c1ccc(S(N)(=O)=O)cc1 [Compound 4],0.83,1.1
Cc1ccc(Br)c(-c2cc(C(F)(F)F)nn2-c2ccc(S(N)(=O)=O)cc2)c1 [Compound 6],1.5,6.9
COc1ccc(C(C)C)cc1-c1cc(C(F)(F)F)nn1-c1ccc(S(N)(=O)=O)cc1 [Compound 7],5.8,12
NS(=O)(=O)c1ccc(-n2nc(C(F)(F)F)cc2-c2cc(-c3ccncc3)ccc2F)cc1 [Compound 20],3,
Cc1cc(-c2ccncc2)cc(-c2cc(C(F)(F)F)nn2-c2ccc(S(N)(=O)=O)cc2)c1 [Compound 22],1.2,
NS(=O)(=O)c1ccc(-n2nc(C(F)(F)F)cc2-c2cccc(-c3ccn[nH]3)c2)cc1 [Compound 34],2.1,12
CN(C)c1ccc(-c2ccn[nH]2)cc1-c1cc(C(F)(F)F)nn1-c1ccc(S(N)(=O)=O)cc1 [Compound 36],9.1,
Cc1ccc(-c2cccnc2)cc1-c1cc(C(F)(F)F)nn1-c1ccc(S(N)(=O)=O)cc1 [Compound 46],9.1,10
Cc1ccc(-c2ccn[nH]2)cc1-c1cc(C2CC2)nn1-c1ccc(S(N)(=O)=O)cc1 [Compound 73],3.3,7.9
Cc1cc(-c2cc(C3CC3)nn2-c2ccc(C(=O)NO)cc2)ccc1Cl [Compound 76],9,
Cc1ccc(Br)cc1-c1cc(C(F)(F)F)nn1-c1ccc(S(N)(=O)=O)cc1 [Example 1],7.6,11
CN(C)c1ccc(Br)cc1-c1cc(C(F)(F)F)nn1-c1ccc(S(N)(=O)=O)cc1 [Example 2],0.6,1.2
Cc1ccc(-c2ccncc2)cc1-c1cc(C(F)(F)F)nn1-c1ccc(S(N)(=O)=O)cc1 [Example 11],0.01,8.9
Cc1ccc(-c2ccn[nH]2)cc1-c1cc(C(F)(F)F)nn1-c1ccc(S(N)(=O)=O)cc1 [Example 12],0.04,14
